Source: patent US10112932B2, “Benzoxazepin oxazolidinone compounds and methods of use” (Genentech, Inc., priority 2015, dated 2018)
Read-outs that look alike come from different tables or passages of the source.

How the values were obtained:
[1] = tested on: HCC1954 (PI3Kα mutant H1047R), p-PRAS40; experiment: p-PRAS40 MSD assay in HCC1954 cells (Example 907); details: Homo sapiens, HCC1954, 24 h, read-out: P-PRAS40 HCC1954 MSD EC50
[2] = tested on: SW48 (parental) PI3Kα wild-type cells, P-PRAS40; experiment: Inhibition of P-PRAS40 in SW48 isogenic cells, PI3Kα wild-type parental (Example 902); details: Homo sapiens, SW48, 24 h, read-out: P-PRAS40 SW48 (parental) EC50
[3] = tested on: MCF7 cells (PI3Kα mutant E545K); experiment: Cell viability / antiproliferative assay in MCF7 cells (Example 903); assay type: cell-based; details: Homo sapiens, MCF7, 96 h, read-out: MCF7 antiproliferative EC50
Description: Cells were seeded (1,500 per well) in 384-well plates for 16 h. On day 2, nine serial 1:3 compound dilutions were made in DMSO in a 96-well plate. The compounds were then further diluted into growth media using a Rapidplate robot (Zymark Corp.). […] After 4 d, relative numbers of viable cells were measured by luminescence using Cell Titer-Glo (Promega) according to the manufacturer's instructions and read on a Wallac Multilabel Reader (Perkin-Elmer). EC50 values were calculated using Prism 6.0 software (GraphPad).

[4] = tested on: SW48 (H1047R) PI3Kα mutant cells, P-PRAS40; experiment: Inhibition of P-PRAS40 in SW48 isogenic cells, kinase domain mutant H1047R (Example 902); details: Homo sapiens, SW48, 24 h, read-out: P-PRAS40 SW48 (H1047R) EC50
[5] = Unbound fraction in mouse plasma (Fu); assay type: in vitro ADME; details: read-out: Fu mouse (unbound fraction in species plasma)
[6] = target: PI3Kα (Homo sapiens (Human), UniProt P42336); experiment: Biochemical inhibition of PI3K alpha (ADP-Glo lipid kinase assay, Example 901); details: geometric mean of minimum three experiments unless footnoted
Description: Reactions are carried out using the following conditions for each PI3K isoform as in Table 5.
All reactions are carried out at room temperature. […] The reaction is started by the addition of 2 μl ATP/MgCl2. The kinase reaction buffer contains 50 mM HEPES, 50 mM NaCl 3 mM MgCl2, 0.01% BSA, 1% DMSO, and enzyme and substrate concentrations as indicated in the above table. The reaction is stopped by the addition of 10 μL ADP-Glo reagent. Plates are read in a Perkin Elmer Envision system using luminescence mode. 10 point dose response curves are generated for each test compound. Ki values for each compound are determined using the Morrison Equation.

[7] = tested on: CD69 expression in CD19+ CD27− B cells; experiment: B-cell a-IgM CD69 expression, human whole blood assay (Example 906); assay type: cell-based
Description: The expression of CD69 in B-cells resultant from a-IgM treatment is believed to be driven by signaling through PI3Kδ (delta).
Human whole blood was dispensed into 96-deep well plates at 100 μl per well. Compounds were diluted in DMSO to generate the desired stock concentrations and then further diluted in PBS to the desired working concentration and added in a volume of 5.5 μL per well. Samples were then incubated for 1 hour at 37° C. under 5% CO2 before the addition of 5 μg (10 μl per well) of Goat anti IgM F(ab′)2 (Southern Biotech, AL), and incubated for 18 hours at 37° C. under 5% CO2. All treatments were tested in duplicate.
In addition, human whole blood from each donor was stained with isotype-matched fluorescent control antibodies. After the addition of the appropriate antibody cocktail the whole blood samples were stained for 30 minutes in the dark and then lysed using BD Pharm Lysis (BD Bioscience, NJ). The resulting samples were then washed with FACS Buffer (Phosphate Buffered Saline (Ca:Mg++ free), 1 mM EDTA, 25 mM HEPES pH 7.0, 1% Fetal Bovine Serum (Heat-Inactivated) and fixed in FACS Buffer supplemented with 0.1% Formaldehyde (Polysciences Inc, PA) and 0.1% Pluronic F-68 (Sigma, MO). Data were acquired using a BD LSR-II (BD Biosciences) with BD FACSDiva software.
Cells were assessed by flow cytometry for levels of CD19, CD27 and CD69 using BD FACSDiva Software and the CD69 MFI-Mean of the CD19^+ CD27^− lymphocyte population was determined.

[8] = Multiple day oral dosing in dogs (exposure, clinical and anatomic pathology); assay type: in vivo, Beagle dogs; details: for concentration at 14 day / Cmax / AUC(0-t): Beagle, plasma; for concentration at 14 day / Cmax / AUC(0-t) / Cmax D14, free / Exposure AUC0-24 hr, D14, free / Exposure multiples (free, AUC) / Exposure multiples (total, AUC) / Exposure multiples to CD69 IC50 (total, Cmin): dog; for concentration at 14 day: oral, read-out: Cmin D14, total; for Cmax / AUC(0-t): po; for Cmax: read-out: Cmax D14, total; for AUC(0-t): read-out: Exposure AUC0-24 hr, D14, total; for Exposure multiples (free, AUC) / Exposure multiples (total, AUC): vs TGI60 from 21-day HCC1954 TGI study; for Exposure multiples to CD69 IC50 (total, Cmin): whole-blood CD69 IC50 = 142 nM
Description: The extent and severity of findings is consistent with increased inhibition of PI3Kδ (delta) at exposure multiples over CD69 IC50 for the comparator compounds.

[9] = target: p110α (Homo sapiens (Human), UniProt P42336, H1047R); experiment: p110α degradation, Western blot in HCC1954 and HDQ-P1 cells after 24 hour treatment (Example 905); assay type: cell-based; details: HCC1954 (PI3Kα mutant H1047R) vs. HDQ-P1 (PI3Kα wild-type)
Description: Cell lines were grown under standard tissue culture conditions in RPMI media with 10% fetal bovine serum, 100 U/mL penicillin, and 100 μg/mL streptomycin.

[10] = tested on: SW48 (E545K) PI3Kα mutant cells, P-PRAS40; experiment: Inhibition of P-PRAS40 in SW48 isogenic cells, helical domain mutant E545K (Example 902); details: Homo sapiens, SW48, 24 h, read-out: P-PRAS40 SW48 (E545K) EC50
[11] = Unbound fraction in dog plasma (Fu); assay type: in vitro ADME; details: read-out: Fu dog (unbound fraction in species plasma)
[12] = tested on: HCC1954 cells (PI3Kα mutant H1047R); experiment: Cell viability / antiproliferative assay in HCC1954 cells (Example 903); details: Homo sapiens, HCC1954, 96 h, read-out: HCC1954 antiproliferative EC50
[13] = tested on: HDQ-P1 (PI3Kα wild-type), p-PRAS40; experiment: p-PRAS40 MSD assay in HDQ-P1 cells (Example 907); details: Homo sapiens, HDQ-P1, 24 h, read-out: P-PRAS40 HDQ-P1 MSD EC50

Sequence of p110α (P42336 whole entry H1047R, the tested form may be a part): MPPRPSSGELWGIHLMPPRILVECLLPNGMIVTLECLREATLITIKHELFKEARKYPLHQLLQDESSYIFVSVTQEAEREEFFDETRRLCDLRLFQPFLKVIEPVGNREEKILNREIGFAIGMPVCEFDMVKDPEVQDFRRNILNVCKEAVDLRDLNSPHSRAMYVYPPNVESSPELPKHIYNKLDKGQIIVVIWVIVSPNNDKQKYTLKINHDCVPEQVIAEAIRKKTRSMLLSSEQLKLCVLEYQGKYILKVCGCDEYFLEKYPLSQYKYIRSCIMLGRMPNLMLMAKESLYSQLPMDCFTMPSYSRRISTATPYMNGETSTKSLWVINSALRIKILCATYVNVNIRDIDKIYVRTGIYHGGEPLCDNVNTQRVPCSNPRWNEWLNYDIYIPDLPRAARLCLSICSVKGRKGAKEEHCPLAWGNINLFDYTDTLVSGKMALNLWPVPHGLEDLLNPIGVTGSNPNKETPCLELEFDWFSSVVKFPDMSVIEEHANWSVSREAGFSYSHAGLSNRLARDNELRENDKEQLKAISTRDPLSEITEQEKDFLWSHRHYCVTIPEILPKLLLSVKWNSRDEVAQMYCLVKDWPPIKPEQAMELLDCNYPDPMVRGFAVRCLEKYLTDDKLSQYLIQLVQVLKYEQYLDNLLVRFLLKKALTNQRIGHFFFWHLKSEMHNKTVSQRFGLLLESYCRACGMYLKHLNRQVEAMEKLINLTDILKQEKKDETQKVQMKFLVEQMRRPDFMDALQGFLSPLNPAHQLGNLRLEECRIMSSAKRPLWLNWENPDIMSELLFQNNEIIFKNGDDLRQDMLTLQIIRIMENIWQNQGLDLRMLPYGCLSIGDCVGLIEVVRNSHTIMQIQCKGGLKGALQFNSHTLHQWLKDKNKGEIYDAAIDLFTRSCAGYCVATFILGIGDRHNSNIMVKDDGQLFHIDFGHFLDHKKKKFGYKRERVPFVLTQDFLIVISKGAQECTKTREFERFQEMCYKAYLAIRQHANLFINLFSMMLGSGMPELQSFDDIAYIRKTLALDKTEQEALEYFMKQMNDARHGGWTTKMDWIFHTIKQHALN
Sequence of p110α (P27986 whole entry partner, the tested form may be a part): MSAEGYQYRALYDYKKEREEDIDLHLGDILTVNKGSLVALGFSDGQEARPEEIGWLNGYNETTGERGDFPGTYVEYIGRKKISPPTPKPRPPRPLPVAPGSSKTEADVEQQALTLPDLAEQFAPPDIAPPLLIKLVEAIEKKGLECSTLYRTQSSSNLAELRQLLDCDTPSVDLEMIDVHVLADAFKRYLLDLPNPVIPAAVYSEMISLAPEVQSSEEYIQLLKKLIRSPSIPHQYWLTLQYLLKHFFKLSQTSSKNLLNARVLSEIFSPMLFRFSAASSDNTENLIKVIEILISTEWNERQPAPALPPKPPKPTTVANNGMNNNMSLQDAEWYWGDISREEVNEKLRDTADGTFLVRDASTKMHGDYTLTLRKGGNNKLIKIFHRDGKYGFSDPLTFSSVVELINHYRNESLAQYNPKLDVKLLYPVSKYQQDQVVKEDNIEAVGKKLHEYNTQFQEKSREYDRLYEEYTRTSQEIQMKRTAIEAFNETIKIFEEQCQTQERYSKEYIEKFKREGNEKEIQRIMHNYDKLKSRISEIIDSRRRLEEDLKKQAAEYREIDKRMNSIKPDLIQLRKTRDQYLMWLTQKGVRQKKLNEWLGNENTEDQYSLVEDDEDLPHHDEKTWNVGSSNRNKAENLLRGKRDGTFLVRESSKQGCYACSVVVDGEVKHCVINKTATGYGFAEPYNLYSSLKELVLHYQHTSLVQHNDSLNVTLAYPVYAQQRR
Sequence of PI3Kα (P42336 whole entry, canonical isoform): as the sequence (P42336 whole entry H1047R, the tested form may be a part) above, with R1047H counted along it
Sequence of PI3Kα (P27986 whole entry partner, canonical isoform): as the sequence (P27986 whole entry partner, the tested form may be a part) above

NC(=O)[C@@H](Nc1ccc2c(c1)OCCn1cc(N3C(=O)OC[C@H]3C(F)F)nc1-2)C1CC1 [Compound 103, (S)-2-Cyclopropyl-2-((2-((S)-4-(difluoromethyl)-2-oxooxazolidin-3-yl)-5,6-dihydrobenzo[f]imidazo[1,2-d][1,4]oxazepin-9-yl)amino)acetamide]
EC50 [1]: 28 nM | EC50 [2]: 10.1 nM | EC50 [3]: 30 nM | EC50 [4]: 3.8 nM | fraction unbound [5]: 0.03 | Ki [6]: 0.06 nM | IC50 ([7]; Homo sapiens, whole-blood, uncorrected, read-out: a-IgM stimulated CD69 expression (whole-blood) IC50): 142 nM | IC50 ([7]; human whole-blood IC50 multiplied by measured human fu, read-out: B-cell a-IgM CD69 expression IC50, plasma-protein-binding corrected): 76 nM | concentration at 14 day ([8]; 0.1 mg/kg/day): 4.8 nM | concentration at 14 day ([8]; 0.3 mg/kg/day): 11 nM | concentration at 14 day ([8]; 1 mg/kg/day): 34 nM | Cmax ([8]; 0.1 mg/kg/day): 40 nM | AUC(0-t) ([8]; 0.1 mg/kg/day): 0.27 µM·h | Cmax ([8]; 0.3 mg/kg/day): 130 nM | AUC(0-t) ([8]; 0.3 mg/kg/day): 0.9 µM·h | Cmax ([8]; 1 mg/kg/day): 310 nM | AUC(0-t) ([8]; 1 mg/kg/day): 2.54 µM·h | Cmax D14, free ([8]; Compound 103 0.1 mg/kg/day QD): 20 nM | Exposure AUC0-24 hr, D14, free ([8]; Compound 103 0.1 mg/kg/day QD): 0.14 µM·h | Exposure multiples (free, AUC) ([8]; Compound 103 0.1 mg/kg/day QD): 4.7 × | Exposure multiples (total, AUC) ([8]; Compound 103 0.1 mg/kg/day QD): 0.2 × | Exposure multiples to CD69 IC50 (total, Cmin) ([8]; Compound 103 0.1 mg/kg/day QD): 0.03× | Cmax D14, free ([8]; Compound 103 0.3 mg/kg/day QD): 66 nM | Exposure AUC0-24 hr, D14, free ([8]; Compound 103 0.3 mg/kg/day QD): 0.46 µM·h | Exposure multiples (free, AUC) ([8]; Compound 103 0.3 mg/kg/day QD): 15 × | Exposure multiples (total, AUC) ([8]; Compound 103 0.3 mg/kg/day QD): 0.8 × | Exposure multiples to CD69 IC50 (total, Cmin) ([8]; Compound 103 0.3 mg/kg/day QD): 0.08× | Cmax D14, free ([8]; Compound 103 1 mg/kg/day QD): 160 nM | Exposure AUC0-24 hr, D14, free ([8]; Compound 103 1 mg/kg/day QD): 1.29 µM·h | Exposure multiples (free, AUC) ([8]; Compound 103 1 mg/kg/day QD): 43 × | Exposure multiples (total, AUC) ([8]; Compound 103 1 mg/kg/day QD): 2.2 × | Exposure multiples to CD69 IC50 (total, Cmin) ([8]; Compound 103 1 mg/kg/day QD): 0.2× | Lymphoid depletion (summary) ([8]; multiple-day dosing in Beagle dogs (7-14 days), high exposure multiples): only minor amounts of lymphoid depletion at high exposure multiples | Pro-inflammatory signature (clinical pathology or anatomic pathology evaluation) ([8]; multiple-day dosing in Beagle dogs (7-14 days), 101 and 103 at >5-fold free exposure multiples over TGI60): do not promote a pro-inflammatory signature | p110α levels (Western blot) [9]: promote reduction of p110α levels selectively in PI3K mutant | EC50 [10]: 4.1 nM | fraction unbound [11]: 0.507 | EC50 [12]: 70 nM | EC50 [13]: 155 nM
